Molecules are shown by their SMILES. “And” between values parts separate entries of the source, which are not always exact repeats. Equal values may be shown once.

Data set [1] has as its system auditory nerve compound action potential (CAP). Nature of the data set: Auditory nerve CAP during intracochlear (apical) perfusion. The class given is in vivo, guinea pig. As for the experimental part:
(§1) This study utilized 21 NIH-strain, pigmented guinea pigs weighing from 400 to 650 g, in accordance with policies and protocols approved by the Institutional Animal Care and Use Committee at Washington University in St. Louis (20180133, 20190035). Animals were anesthetized with intraperitoneal (IP) injection of 100 mg/kg sodium thiobutabarbital (Inactin, Sigma, St. Louis, MO). Once anesthetized, the fur from the head and neck was shaved and a tracheal cannula was placed. The animal was maintained on 0.8–1.2% isoflurane in oxygen using a mechanical ventilator. The ventilator's tidal volume was adjusted to maintain a 5% end-tidal CO2 which was monitored with a CapnoTrue AMP (Bluepoint Medical, Zevenaar, The Netherlands). Body temperature was maintained at 38 degrees C with a DC-powered heating blanket-rectal thermometer (Model 50-7079; Harvard Apparatus). Heart rate and oxygen saturation were monitored with a pulse oximeter (Surgivet, Waukesha, WI). The auditory bulla was exposed ventrally for placement of recording electrodes. The jugular vein was cannulated to maintain hydration with 0.5 mL per hour of Lactated Ringer's solution. To prevent middle ear muscle contractions, vecuronium bromide (0.2 mg/kg) was administered immediately prior to data collection and every 1.5 h thereafter.
The head was stabilized in a head-holder with a solid ear bar on the left side and hollow ear bar on the right side, a bite bar, and a snout clamp. Sound calibration, stimulus generation, and recording methods have been detailed previously (Lichtenhan et al., [2016a], [2017]). Briefly, cochlear function measurements were made using MATLAB software (The MathWorks, Natick, MA) and the software utility Playrec. The stimulus was first generated in MATLAB, digitized at 96 kHz, presented to a 24-bit sound card (RME: Fireface802; Sweetwater, Fort Wayne, IN), and then routed to an acoustic probe system (ER-10X; Etymotic Research, Fort Wayne, IN). The ER-10X microphone was calibrated using a reference microphone (1/8” GRAS type 40P) and a custom-made coupling system was used for setting stimulus levels. Sound was presented through the hollow ear bar on the right side via the ER-10X microphone probe.
Cochlear output was recorded as a field potential between a Ag/AgCl ball electrode in the cochlear round window niche and a platinum needle electrode at the vertex of the cranium. Responses to 20 tone bursts (10 with reversed polarity) were averaged for each CAP measurement at a given frequency and level. The CAP audiogram was measured (1–22 kHz, 1/4 octave steps) at the beginning and end of the experiment to determine CAP threshold as a function of tone-burst frequency. Prior to and immediately after IEM-1460 perfusions via the apical cochlear fenestration (see below), CAPs were evoked by tone bursts at selected frequencies and levels. Measurements were repeated at 1- to 2-min intervals to monitor cochlear output and to ensure response stationarity for at least 25 min prior to drug delivery. Data with baseline changes >20% were excluded. The round window niche was monitored for accumulation of fluid.
At each probe frequency, CAP peak-to-peak amplitudes were measured from the first trough (N1) to the first peak (P1). Latencies were measured to the trough of N1. Cochlear output was compared before and after intraperitoneal drug delivery. The data were tested for normality using a Kolmogorov-Smirnov test. For CAP amplitude and latency, significance was assessed with the Mann-Whitney U-test. The Wilcoxon signed rank test was used to assess CAP threshold. Friedman test was used to compare concentrations of drug between perilymph and CSF. A p < 0.05 was considered statistically significant. A Bonferroni correction was used when performing multiple comparison testing. All statistical tests were performed with IBM SPSS Statistics Version 27 (SPSS Inc., Chicago, IL, United States). […]

For data set [2], the system named is distortion product otoacoustic emissions (DPOAE). Nature of the data set: Distortion product otoacoustic emissions after systemic delivery. It is filed as in vivo, guinea pig. Particulars: IP 13.5 mg/kg. As for the experimental part: As described for local delivery, cochlear output was measured similarly for systemic delivery of IEM-1460 and IEM-1925. Complete details have been previously published (Salt et al., [2013]). Briefly, acoustic tone bursts were applied in a closed sound system. The plastic extension tube of the acoustic assembly (Etymotic Research, ER-10 C) was coupled to the end of the hollow ear bar with the tube tip positioned ~1.5 mm from the tympanic membrane. Stimulus generation and data collection were performed with Tucker Davis System 3 hardware controlled by a custom written program (Microsoft Visual Basic). Stimulus waveforms were routed through a programmable Tucker Davis PA5 attenuator and HB7 headphone amplifier. Stimuli were calibrated from 0.125 to 26 kHz in 1/4 octave steps. A CAP audiogram was obtained at the beginning and end of the experiment. Up to 60 min of baseline audiometric data were obtained prior to drug delivery. Data with baseline changes >20% were excluded. A 13-level tone probe series, at selected frequencies, was repeated at 2-min intervals. Distortion product otoacoustic emissions (DPOAEs) were measured using an ER10C probe system. The two primary tone frequencies were set at 6 kHz (f1) and 7.4 kHz (f2), for a f2/f1-ratio of 1.23, with levels of 65 dB SPL (L1) and 55 dB SPL (L2). […]

The next data set has as its system GluA2-containing AMPARs. Further details: method as in Magazanik et al., 1997; Buldakova et al., 1999. As to conditions: ref Magazanik et al., 1997; Buldakova et al., 1999; cited from earlier work.
The nature of data set [3]: Heart rate and blood oxygenation monitoring during systemic dosing. The class given is in vivo, guinea pig. As to conditions: IP injection: IEM-1460 13.5 mg/kg, IEM-1925 8 mg/kg; N = 4. As for the experimental part: as §1, with “To prevent middle ear muscle contractions, vecuronium bromide (0.2 mg/kg) was administered immediately prior to data collection and every 1.5 h thereafter.” left out
Systemic delivery of IEM-1925 (8 mg/kg, IP) reduced CAP amplitude to a similar extent as IEM-1460 (13.5 mg/kg, IP). […] Blood oxygenation and heart rate were monitored along with cochlear physiology during the time course of the experiment. […]

The mark [4] stands for this setting: 100 μM, across tone levels and frequencies.

As to `C[N+](C)(C)CCCCCNCC12CC3CC(CC(C3)C1)C2` [IEM-1460], the “reduction of tone-evoked CAP amplitude” value in data set [1] (10 μM in perfusion) was ~ 25%. The “reduction of CAP amplitude” value in data set [1] (100 μM in perfusion pipette, 80 dB SPL tones at 2 and 16 kHz, average) was ~ 55%; in data set [1] (acute intracochlear delivery, all tone levels and frequencies (abstract, concentration not stated)), over 50%. The “reduction of CAP amplitude relative to pre-drug baseline” value was ~ 60% in data set [1] (100 μM, 2 kHz tones) and ~ 30% in data set [1] (100 μM, 16 kHz tones). Also, in data set [1] (setting [4]), the “additional CAP delay” value was ~ 0.3 ms. Moreover, in data set [1] (setting [4]), the “increase of CAP latency relative to pre-drug” value was ~ 10% and 10%. Further, the “change in CAP threshold” value in data set [1] (100 μM, frequencies from 1 to 20 kHz) is under 5 dB SPL. In addition, the IC50 in data set [1] (Cavia porcellus, intracochlear perfusion 0.1 to 4,000 μM, 80 dB SPL probe, averaged for 2 and 16 kHz tones, Boltzmann fit, read-out: IC50, concentration for a 50% CAP reduction) is about 73 µM; in the data set with GluA2-containing AMPARs, 500 to 1100 µM. For the same compound, in data set [2], the “effect on distortion product otoacoustic emissions (DPOAEs)” value is “unaffected”.

For the compound `NCCCCCNC1(c2ccccc2)CCCCC1` [IEM-1925], the “temporary reduction in heart rate” value in data set [3] is “No such reduction”.

The record behind these values is publication PMC8287724, “Reducing Auditory Nerve Excitability by Acute Antagonism of Ca^2+-Permeable AMPA Receptors” (Frontiers in Synaptic Neuroscience, 2021).
